ChEMBL document CHEMBL3352741, “Discovery of VU0431316: a negative allosteric modulator of mGlu5 with activity in a mouse model of anxiety” (Bioorg Med Chem Lett, 2014)
Activity calls are given as the source filed them. The calls are words filed in the database; no cut-off is given here.

Key:
[1] = Plasma concentration in Sprague-Dawley rat at 10 mg/kg, po administered as single dose after 60 mins by LC-MS/MS method; type: ADME, organism-based; parameters: dose 10 mg/kg, route oral
MDCK [2] = test: Apparent permeability from apical to basolateral side in wild type MDCK cells; type: ADME, cell-based, Canis lupus familiaris; details: dog
[3] = biological target: Metabotropic glutamate receptor 1 (Rattus norvegicus) (UniProt P23385); test: Activity at rat mGlu1 expressed in HEK293 cells at 10 uM by calcium flux assay; type: functional, cell-based
Cytochrome P450 1A2 = biological target: T1, Cytochrome P450 1A2 (Homo sapiens, UniProt P05177); test: Inhibition of CYP1A2 in pooled human liver microsomes in presence of NADPH; type: ADME
T1 sequence (P05177 whole entry): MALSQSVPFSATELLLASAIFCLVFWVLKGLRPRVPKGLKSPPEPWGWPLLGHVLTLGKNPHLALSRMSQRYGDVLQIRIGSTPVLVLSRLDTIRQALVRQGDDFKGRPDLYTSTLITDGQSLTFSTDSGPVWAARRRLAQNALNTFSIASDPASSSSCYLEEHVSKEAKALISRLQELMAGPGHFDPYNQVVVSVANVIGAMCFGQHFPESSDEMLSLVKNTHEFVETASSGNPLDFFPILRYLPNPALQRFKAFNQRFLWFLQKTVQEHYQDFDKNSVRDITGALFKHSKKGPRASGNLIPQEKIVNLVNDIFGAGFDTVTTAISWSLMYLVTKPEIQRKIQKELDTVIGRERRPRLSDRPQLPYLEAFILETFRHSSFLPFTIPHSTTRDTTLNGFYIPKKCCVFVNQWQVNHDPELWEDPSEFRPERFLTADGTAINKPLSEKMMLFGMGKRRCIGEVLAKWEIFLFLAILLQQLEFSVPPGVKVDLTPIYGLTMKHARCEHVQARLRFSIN

[4] = Oral bioavailability in Sprague-Dawley rat at 10 mg/kg administered as single dose after 15 to 1440 mins by LC-MS/MS method; type: ADME, organism-based; details: in vivo
[5] = biological target: Metabotropic glutamate receptor 5 (Homo sapiens, UniProt P41594); test: Negative allosteric modulator activity at human mGlu5 assessed as reduction in glutamate-induced calcium mobilization; type: functional
Cytochrome P450 2C9 = Cytochrome P450 2C9 (Homo sapiens, UniProt P11712); test: Inhibition of CYP2C9 in pooled human liver microsomes in presence of NADPH; type: ADME
[6] = Plasma concentration in Harlan CD1 mouse at 30 mg/kg, ip after 15 mins; type: ADME, organism-based; parameters: dose 30 mg/kg, route intraperitoneal
[7] = Apparent permeability from apical to basolateral side in human Caco2 cells; type: ADME, cell-based; details: caco-2
[8] = Tmax in Sprague-Dawley rat at 10 mg/kg, po administered as single dose after 15 to 1440 mins by LC-MS/MS method; type: ADME, organism-based; parameters: dose 10 mg/kg, route oral; details: in vivo
[9] = Efflux ratio in human Caco2 cells; type: ADME, cell-based; details: caco-2
Cytochrome P450 3A4 = Cytochrome P450 3A4 (Homo sapiens, UniProt P08684); test: Inhibition of CYP3A4 in pooled human liver microsomes in presence of NADPH; type: ADME
[10] = biological target: Metabotropic glutamate receptor 2 (Homo sapiens) (UniProt Q14416); test: Activity at mGlu2 (unknown origin) expressed in HEK293-GIRK cells at 10 uM by thallium flux assay; type: cell-based
[11] = Half life in Sprague-Dawley rat at 1 mg/kg, iv after 2 to 1440 mins by LC-MS/MS method; type: ADME, organism-based; parameters: dose 1 mg/kg, route intravenous; details: in vivo
[12] = biological target: T2, Metabotropic glutamate receptor 5 (Rattus norvegicus, UniProt P31424); test: Displacement of [3H]methoxyPEPy from rat mGlu5 expressed in HEK293A cells after 1 hr by scintillation counting method; type: cell-based, HEK293-A
[13] = biological target: Metabotropic glutamate receptor 3 (Homo sapiens) (UniProt Q14832); test: Activity at mGlu3 (unknown origin) expressed in HEK293-GIRK cells at 10 uM by thallium flux assay; type: cell-based
[14] = Plasma concentration in Harlan CD1 mouse at 30 mg/kg, ip after 30 mins; type: ADME, organism-based; parameters: dose 30 mg/kg, route intraperitoneal
[15] = Drug level in Harlan CD1 mouse brain at 30 mg/kg, ip after 30 mins; type: ADME, organism-based; parameters: dose 30 mg/kg, route intraperitoneal; details: read-out: Drug uptake
[16] = Drug level in Harlan CD1 mouse brain at 30 mg/kg, ip after 15 mins; type: ADME, organism-based; parameters: dose 30 mg/kg, route intraperitoneal; details: read-out: Drug uptake
[17] = Ratio of drug level in brain to plasma in Sprague-Dawley rat at 10 mg/kg, po administered as single dose after 60 mins by LC-MS/MS method; type: ADME, organism-based; parameters: dose 10 mg/kg, route oral; details: read-out: BPR
[18] = biological target: Metabotropic glutamate receptor 6 (Homo sapiens) (UniProt O15303); test: Activity at mGlu6 (unknown origin) expressed in HEK293-GIRK cells at 10 uM by thallium flux assay; type: cell-based
[19] = AUC in Sprague-Dawley rat at 1 mg/kg, iv after 2 to 1440 mins by LC-MS/MS method; type: ADME, organism-based; parameters: dose 1 mg/kg, route intravenous; details: plasma
Mus musculus = test: In vivo mGlu5 negative allosteric modulator activity in Harlan CD1 mouse marble burying model of anxiety assessed as reduction in marble burying at => 10 mg/kg, ip dosed 15 mins before test; type: functional, organism-based; parameters: dose 10 mg/kg
Cytochrome P450 2D6 = Cytochrome P450 2D6 (Homo sapiens, UniProt P10635); test: Inhibition of CYP2D6 in pooled human liver microsomes in presence of NADPH; type: ADME
[20] = biological target: Metabotropic glutamate receptor 4 (Homo sapiens) (UniProt Q14833); test: Activity at mGlu4 (unknown origin) expressed in HEK293-GIRK cells at 10 uM by thallium flux assay; type: cell-based
[21] = Drug level in Sprague-Dawley rat brain at 10 mg/kg, po administered as single dose after 60 mins by LC-MS/MS method; type: ADME, organism-based; parameters: dose 10 mg/kg, route oral; details: read-out: Drug uptake
[22] = biological target: Metabotropic glutamate receptor 7 (Homo sapiens) (UniProt Q14831); test: Activity at mGlu7 (unknown origin) expressed in HEK293-GIRK cells at 10 uM by thallium flux assay; type: cell-based
[23] = Clearance in Sprague-Dawley rat at 1 mg/kg, iv after 2 to 1440 mins by LC-MS/MS method; type: ADME, organism-based; parameters: dose 1 mg/kg, route intravenous; details: in vivo
MDCK [24] = test: Apparent permeability from basolateral to apical side in wild type MDCK cells; type: ADME, cell-based, Canis lupus familiaris; details: dog
[25] = biological target: T2, Metabotropic glutamate receptor 5; test: Negative allosteric modulator activity at rat mGlu5 expressed in HEK293A cells assessed as reduction in glutamate-induced calcium mobilization; type: functional, cell-based, HEK293-A
Plasma [26] = test: Fraction unbound in rat plasma by equilibrium dialysis method; type: ADME, cell-free
[27] = Cmax in Sprague-Dawley rat at 10 mg/kg, po administered as single dose after 15 to 1440 mins by LC-MS/MS method; type: ADME, organism-based; parameters: dose 10 mg/kg, route oral; details: in vivo
[28] = Apparent permeability from basolateral to apical side in human Caco2 cells; type: ADME, cell-based; details: caco-2
[29] = Volume of distribution at steady state in Sprague-Dawley rat at 1 mg/kg, iv after 2 to 1440 mins by LC-MS/MS method; type: ADME, organism-based; parameters: dose 1 mg/kg, route intravenous; details: in vivo, read-out: Vdss
[30] = Drug level in Harlan CD1 mouse brain at 30 mg/kg, ip after 60 mins; type: ADME, organism-based; parameters: dose 30 mg/kg, route intraperitoneal; details: read-out: Drug uptake
Plasma [31] = test: Fraction unbound in human plasma by equilibrium dialysis method; type: ADME, cell-free
Plasma [32] = test: Fraction unbound in cynomolgus monkey plasma by equilibrium dialysis method; type: ADME, cell-free, Macaca fascicularis
[33] = biological target: Metabotropic glutamate receptor 8 (Homo sapiens) (UniProt O00222); test: Activity at mGlu8 (unknown origin) expressed in HEK293-GIRK cells at 10 uM by thallium flux assay; type: cell-based
MDCK [34] = test: Efflux ratio in wild type MDCK cells; type: ADME, cell-based, Canis lupus familiaris; details: dog
Brain = test: Fraction unbound in mouse brain homogenates by equilibrium dialysis method; type: ADME, tissue-based; details: brain homogenate
[35] = biological target: Metabotropic glutamate receptor 5 (Rattus norvegicus) (UniProt P31424); test: Negative allosteric modulator activity at rat mGlu5 expressed in HEK293A cells assessed as reduction in 100 uM glutamate-induced calcium mobilization at 30 uM; type: functional, cell-based; details: HEK293-A
[36] = Plasma concentration in Harlan CD1 mouse at 30 mg/kg, ip after 60 mins; type: ADME, organism-based; parameters: dose 30 mg/kg, route intraperitoneal
[37] = AUC in Sprague-Dawley rat at 10 mg/kg, po administered as single dose after 15 to 1440 mins by LC-MS/MS method; type: ADME, organism-based; parameters: dose 10 mg/kg, route oral; details: plasma
[38] = Drug level in Sprague-Dawley rat hepatic portal vein at 10 mg/kg, po administered as single dose after 60 mins by LC-MS/MS method; type: ADME, organism-based; parameters: dose 10 mg/kg, route oral; details: read-out: Drug uptake

T2 sequence (P31424 whole entry): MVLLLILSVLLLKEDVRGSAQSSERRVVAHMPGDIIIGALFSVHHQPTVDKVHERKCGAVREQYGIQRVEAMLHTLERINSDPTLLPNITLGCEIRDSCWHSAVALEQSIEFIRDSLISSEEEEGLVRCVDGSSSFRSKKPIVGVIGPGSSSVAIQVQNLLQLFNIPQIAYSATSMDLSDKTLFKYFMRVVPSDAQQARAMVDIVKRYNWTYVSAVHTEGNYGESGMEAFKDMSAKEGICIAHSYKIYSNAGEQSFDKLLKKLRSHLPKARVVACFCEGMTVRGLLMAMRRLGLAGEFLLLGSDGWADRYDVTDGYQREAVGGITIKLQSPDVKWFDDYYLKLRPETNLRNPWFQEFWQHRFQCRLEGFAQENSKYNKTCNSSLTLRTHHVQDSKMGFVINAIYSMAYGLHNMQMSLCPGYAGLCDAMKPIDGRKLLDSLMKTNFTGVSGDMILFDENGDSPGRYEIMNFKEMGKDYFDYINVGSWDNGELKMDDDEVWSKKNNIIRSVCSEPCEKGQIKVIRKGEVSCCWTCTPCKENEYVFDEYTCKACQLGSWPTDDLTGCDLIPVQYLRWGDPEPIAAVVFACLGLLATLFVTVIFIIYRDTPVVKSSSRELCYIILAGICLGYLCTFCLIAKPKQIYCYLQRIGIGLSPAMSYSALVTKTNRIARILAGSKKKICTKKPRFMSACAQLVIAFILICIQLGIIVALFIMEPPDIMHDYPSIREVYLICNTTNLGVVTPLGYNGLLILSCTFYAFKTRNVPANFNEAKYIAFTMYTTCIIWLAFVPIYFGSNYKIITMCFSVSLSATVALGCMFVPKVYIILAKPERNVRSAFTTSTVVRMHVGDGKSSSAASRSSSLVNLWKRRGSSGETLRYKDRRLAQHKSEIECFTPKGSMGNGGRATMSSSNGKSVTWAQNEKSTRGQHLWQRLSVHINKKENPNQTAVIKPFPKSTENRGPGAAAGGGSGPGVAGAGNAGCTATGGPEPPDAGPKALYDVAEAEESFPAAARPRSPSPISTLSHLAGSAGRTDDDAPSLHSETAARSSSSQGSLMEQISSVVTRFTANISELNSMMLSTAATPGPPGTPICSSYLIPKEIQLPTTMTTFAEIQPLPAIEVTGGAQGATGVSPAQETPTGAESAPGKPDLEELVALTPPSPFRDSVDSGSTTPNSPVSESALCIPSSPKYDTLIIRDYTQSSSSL
Sequence of Cytochrome P450 3A4 (P08684 whole entry): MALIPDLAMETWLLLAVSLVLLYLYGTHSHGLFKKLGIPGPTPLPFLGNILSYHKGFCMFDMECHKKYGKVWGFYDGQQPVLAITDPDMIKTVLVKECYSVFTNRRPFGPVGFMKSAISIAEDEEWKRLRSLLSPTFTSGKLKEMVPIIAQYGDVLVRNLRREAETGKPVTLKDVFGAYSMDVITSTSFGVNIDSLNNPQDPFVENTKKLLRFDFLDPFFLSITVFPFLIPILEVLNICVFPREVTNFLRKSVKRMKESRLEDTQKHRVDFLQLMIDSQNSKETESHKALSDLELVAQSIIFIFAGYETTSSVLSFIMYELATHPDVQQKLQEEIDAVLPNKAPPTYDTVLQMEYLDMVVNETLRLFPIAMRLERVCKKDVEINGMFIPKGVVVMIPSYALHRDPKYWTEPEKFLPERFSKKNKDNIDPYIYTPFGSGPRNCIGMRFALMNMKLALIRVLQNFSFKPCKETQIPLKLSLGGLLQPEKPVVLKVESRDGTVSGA
Sequence of Metabotropic glutamate receptor 7 (Homo sapiens) (Q14831 whole entry): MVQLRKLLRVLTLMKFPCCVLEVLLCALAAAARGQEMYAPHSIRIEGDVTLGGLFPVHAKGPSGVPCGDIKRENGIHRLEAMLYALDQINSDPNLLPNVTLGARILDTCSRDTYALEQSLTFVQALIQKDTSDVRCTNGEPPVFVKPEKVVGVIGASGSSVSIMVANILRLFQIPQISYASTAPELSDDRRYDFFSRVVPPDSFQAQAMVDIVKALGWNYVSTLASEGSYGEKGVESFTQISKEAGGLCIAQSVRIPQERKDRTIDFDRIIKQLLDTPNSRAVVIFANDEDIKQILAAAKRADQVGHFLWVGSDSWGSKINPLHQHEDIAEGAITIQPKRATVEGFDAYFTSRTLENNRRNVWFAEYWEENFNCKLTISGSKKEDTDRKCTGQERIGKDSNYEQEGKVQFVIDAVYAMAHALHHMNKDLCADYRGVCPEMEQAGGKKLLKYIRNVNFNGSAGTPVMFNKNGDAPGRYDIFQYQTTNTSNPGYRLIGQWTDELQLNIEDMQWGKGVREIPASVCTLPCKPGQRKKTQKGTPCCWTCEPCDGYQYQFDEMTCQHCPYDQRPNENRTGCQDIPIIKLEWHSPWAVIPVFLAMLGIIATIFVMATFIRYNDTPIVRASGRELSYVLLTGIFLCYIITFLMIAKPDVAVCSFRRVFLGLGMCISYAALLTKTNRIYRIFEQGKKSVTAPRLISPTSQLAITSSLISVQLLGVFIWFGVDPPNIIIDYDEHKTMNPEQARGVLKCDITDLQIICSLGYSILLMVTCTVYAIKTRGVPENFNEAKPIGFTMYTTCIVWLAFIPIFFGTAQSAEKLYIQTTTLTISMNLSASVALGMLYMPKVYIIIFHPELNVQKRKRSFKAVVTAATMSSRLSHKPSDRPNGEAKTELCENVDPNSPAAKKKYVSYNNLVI
Sequence of Metabotropic glutamate receptor 6 (Homo sapiens) (O15303 whole entry): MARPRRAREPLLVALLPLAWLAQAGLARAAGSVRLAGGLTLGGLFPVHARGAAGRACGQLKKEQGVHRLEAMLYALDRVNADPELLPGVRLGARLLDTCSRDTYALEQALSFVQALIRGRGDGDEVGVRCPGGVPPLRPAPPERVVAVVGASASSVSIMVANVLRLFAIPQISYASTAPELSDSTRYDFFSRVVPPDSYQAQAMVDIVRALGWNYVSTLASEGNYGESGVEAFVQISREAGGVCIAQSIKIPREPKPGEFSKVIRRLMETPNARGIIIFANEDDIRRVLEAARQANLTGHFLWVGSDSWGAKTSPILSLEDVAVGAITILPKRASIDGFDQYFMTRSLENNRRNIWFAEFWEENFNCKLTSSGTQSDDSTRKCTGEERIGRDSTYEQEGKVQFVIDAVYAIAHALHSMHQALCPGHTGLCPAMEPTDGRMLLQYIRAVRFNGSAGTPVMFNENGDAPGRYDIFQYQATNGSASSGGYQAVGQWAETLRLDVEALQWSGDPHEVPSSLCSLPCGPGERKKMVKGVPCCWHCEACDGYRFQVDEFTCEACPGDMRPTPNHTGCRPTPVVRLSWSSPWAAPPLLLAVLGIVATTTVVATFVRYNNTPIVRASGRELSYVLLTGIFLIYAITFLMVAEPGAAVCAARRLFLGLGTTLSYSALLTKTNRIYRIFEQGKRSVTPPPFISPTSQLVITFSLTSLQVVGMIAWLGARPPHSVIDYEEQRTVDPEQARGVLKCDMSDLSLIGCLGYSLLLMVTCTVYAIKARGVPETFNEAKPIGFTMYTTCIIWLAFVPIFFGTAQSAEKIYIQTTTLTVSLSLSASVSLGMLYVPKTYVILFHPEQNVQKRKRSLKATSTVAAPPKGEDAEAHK
Sequence of Metabotropic glutamate receptor 4 (Homo sapiens) (Q14833 whole entry): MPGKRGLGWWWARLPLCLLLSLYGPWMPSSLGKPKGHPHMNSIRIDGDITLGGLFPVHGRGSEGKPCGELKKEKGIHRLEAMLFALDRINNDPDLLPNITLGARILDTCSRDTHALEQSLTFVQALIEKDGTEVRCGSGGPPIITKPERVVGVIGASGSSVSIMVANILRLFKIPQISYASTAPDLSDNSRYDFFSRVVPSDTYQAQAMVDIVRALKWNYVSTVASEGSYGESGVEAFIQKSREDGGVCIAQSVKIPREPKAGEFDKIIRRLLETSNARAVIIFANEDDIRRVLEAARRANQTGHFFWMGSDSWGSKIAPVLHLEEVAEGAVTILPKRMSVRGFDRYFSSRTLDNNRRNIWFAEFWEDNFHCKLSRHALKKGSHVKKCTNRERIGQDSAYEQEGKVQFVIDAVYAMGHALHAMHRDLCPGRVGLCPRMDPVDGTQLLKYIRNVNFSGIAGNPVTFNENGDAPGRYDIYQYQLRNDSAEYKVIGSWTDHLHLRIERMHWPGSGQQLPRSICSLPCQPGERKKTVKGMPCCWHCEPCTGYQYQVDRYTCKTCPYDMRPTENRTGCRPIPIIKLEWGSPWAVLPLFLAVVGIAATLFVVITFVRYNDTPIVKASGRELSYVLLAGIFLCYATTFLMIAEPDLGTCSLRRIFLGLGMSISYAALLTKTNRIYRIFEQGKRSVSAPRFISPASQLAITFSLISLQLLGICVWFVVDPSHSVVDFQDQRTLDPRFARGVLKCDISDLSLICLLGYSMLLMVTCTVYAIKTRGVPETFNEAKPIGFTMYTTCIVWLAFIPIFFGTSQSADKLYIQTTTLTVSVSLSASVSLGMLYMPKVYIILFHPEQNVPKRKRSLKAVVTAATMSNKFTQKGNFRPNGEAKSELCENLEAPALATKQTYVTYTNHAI
Sequence of Cytochrome P450 2D6 (P10635 whole entry): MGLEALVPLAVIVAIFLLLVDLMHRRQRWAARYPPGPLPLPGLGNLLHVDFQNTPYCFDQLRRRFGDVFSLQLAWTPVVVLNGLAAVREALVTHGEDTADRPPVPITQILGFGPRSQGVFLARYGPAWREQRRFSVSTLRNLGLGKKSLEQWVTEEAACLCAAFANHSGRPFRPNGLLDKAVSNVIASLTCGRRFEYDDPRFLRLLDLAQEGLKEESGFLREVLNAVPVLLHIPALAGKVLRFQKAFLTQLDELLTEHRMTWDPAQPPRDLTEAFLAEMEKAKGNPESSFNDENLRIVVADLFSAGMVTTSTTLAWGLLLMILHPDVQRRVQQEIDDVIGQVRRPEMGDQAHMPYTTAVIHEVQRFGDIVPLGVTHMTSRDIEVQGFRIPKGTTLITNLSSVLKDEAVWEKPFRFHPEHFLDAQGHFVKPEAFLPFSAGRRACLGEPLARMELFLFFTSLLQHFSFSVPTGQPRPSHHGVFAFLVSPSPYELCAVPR

**Q.** Which results are given for `O=C(Nc1cncc(Oc2cncnc2)n1)c1cc(Cl)ccn1`?
**A.** concentration at 1 h [1]: 920 nM; Papp (MDCK [2]): 50.4 ×10⁻⁶ cm/s; Activity [3]: inactive; IC50 (Cytochrome P450 1A2): 600 nM; bioavailability [4]: 48%; IC50 [5]: 85 nM; IC50 (Cytochrome P450 2C9): > 30000 nM; concentration at 0.25 h [6]: 3990 nM; Papp [7]: 66.8 ×10⁻⁶ cm/s; Tmax [8]: 4 h; Ratio [9]: 1.07; IC50 (Cytochrome P450 3A4): > 30000 nM; Activity [10]: inactive; half-life [11]: 3.22 h; Ki [12]: 37 nM; Activity [13]: inactive; concentration at 0.5 h [14]: 3000 nM; concentration at 0.5 h [15]: 3690 nM; concentration at 0.25 h [16]: 6210 nM; Kp at 1 h [17]: 1.6; Activity [18]: inactive; AUC [19]: 1.73 µM·h; Activity (Mus musculus): Active; IC50 (Cytochrome P450 2D6): > 30000 nM; Activity [20]: inactive; concentration at 1 h [21]: 1450 nM; Activity [22]: inactive; clearance [23]: 30.2 mL/min/kg; Papp (MDCK [24]): 45 ×10⁻⁶ cm/s; IC50 [25]: 62.4 nM; Fu (Plasma [26]): 0.179; Cmax [27]: 1120 nM; Papp [28]: 71.4 ×10⁻⁶ cm/s; Vd [29]: 2.7 L/kg; concentration at 1 h [30]: 2800 nM; Fu (Plasma [31]): 0.12; Fu (Plasma [32]): 0.167; Activity [33]: inactive; Ratio (MDCK [34]): 0.89; Fu (Brain): 0.054; %max [35]: 1.6%; concentration at 1 h [36]: 1690 nM; AUC [37]: 8.37 µM·h; concentration at 1 h [38]: 1310 nM
